Laboratory results taken from patent US20090258850A1, “STABILIZED THERAPEUTIC COMPOSITIONS AND FORMULATIONS” (priority 2007, published 2009).

B1: TPO: TPO injected IP in mice; promotes CFU-S reconstitution (protein, UniProt P40226 22-356, looked up)
Thrombopoietin: SPVAPACDPRLLNKLLRDSHLLHSRLSQCPDVDPLSIPVLLPAVDFSLGEWKTQTEQSKAQDILGAVSLLLEGVMAARGQLEPSCLSSLLGQLSGQVRLLLGALQGLLGTQLPLQGRTTAHKDPNALFLSLQQLLRGKVRFLLLVEGPTLCVRRTLPTTAVPSSTSQLLTLNKFPNRTSGLLETNFSVTARTAGPGLLSRLQGFRVKITPGQLNQTSRSPVQISGYLNRTHGPVNGTHGLFAGTSLQTLEASDISPGAFNKGSLAFNLQGGLPPSPSLAPDGHTPFPPSPALPTTHGSPPQLHPLFPDPSTTMPNSTAPHPVTMYPHPRNLSQET
B2: Peg-G-CSF: Peg-G-CSF injected IP in mice (protein, UniProt P09919 31-207, looked up)
Granulocyte …: TPLGPASSLPQSFLLKCLEQVRKIQGDGAALQEKLVSECATYKLCHPEELVLLGHSLGIPWAPLSSCPSQALQLAGCLSQLHSGLFLYQGLLQALEGISPELGPTLDTLQLDVADFATTIWQQMEELGMAPALQPTQGAMPAFASAFQRRAGGVLVASHLQSFLEVSYRVLRHLAQP
modifications: PEGylated
notes: Peg-G-CSF injected IP in mice

Tests used:
[1] = test system: non-irradiated monkeys; conditions: 15 mg/Kg/d i.m. x5 days, no TBI
Description: Primates used in this study were purpose bred rhesus monkeys (Macaca Mulatta), weighing 2.5 to 4.0 Kg each and aged 2 to 3 years. 5-Androstene-3β,17β-diol (5-AED), prepared as a 100 mg/mL aqueous suspension using 7.4 mM sodium phosphate buffer, pH 6.0, containing 0.5% polysorbate 80, 0.02% benzalkonium chloride and 4.8% mannitol and its vehicle, consisting of the identical formulation without 5-AED, was administered intramuscularly (i.m.) at a dose of 15 mg/kg/d (150 μL/Kg/d), for 5 consecutive days. […] 5-AED and vehicle were administered by deep intramuscular injections into alternating left and right m. vastus lateralis. In the second study, 10 animals (3 males and 2 females in each group) received either 15 mg/Kg/d (150 μL/Kg/d), 5-AED in a stabilized formulation or vehicle for 5 consecutive days, but were not subjected to TBI.
Clinical pathology was conducted as follows: Bone marrow was aspirated under neurolept anesthesia using Ketalar (Apharmo, Arnhem, the Netherlands) and Domitor (Pfizer, Capelle a/d lJssel, The Netherlands). Small bone marrow aspirates for analytical purposes were taken from the shafts of the femurs or humeri using pediatric spinal needles and collected in bottles containing 2 mL HEPES buffered Hanks' balanced salt solution (HBBS) with 200 IU sodium heparin/mL (Leo Pharmaceutical Products, Weesp, the Netherlands). Low-density cells were isolated using Lymphoprep (density 1.077, Fresenius, Oslo, Norway) separation. Cells were plated in 35-mm dishes (Falcon 1008, Becton Dickinson, Leiden, The Netherlands) in 1 mL enriched Dulbecco's medium containing 0.8% methylcellulose, 5% FCS, and additives. […] Colony counts were calculated per mL of bone marrow aspirated using the recovery of cells over the Ficoll density gradient. […] Complete blood cell counts were measured daily using an ABC-vet animal blood counter (Scil, ABX diagnostics, Montpellier, France). […] Measurements were done using a FACSCalibur (Becton Dickinson, Leiden, The Netherlands) and 50,000 events were collected in duplicate and analyzed using the CellQuest (Becton Dickinson) software. […]

[2] = test system: rhesus monkeys subjected to 6 Gy TBI; conditions: in vivo
[3] = test system: immature repopulating cells in bone marrow of BALB/c donor mice; experiment: Immature repopulating cell subsets (CFU-S day 12, MRA day 13) after fractionated 3x2 Gy TBI of BALB/c donor mice; format: in vivo; conditions: fractionated 3×2 Gy TBI; for increase in CFU-S day 12 relative to radiation controls: 40 mg/Kg/d 5-AED IM, 0.7 μg TPO IP after each fraction
Description: (§1) Combination Treatment with androst-5-ene-3β,17β-diol formulation and TPO. For direct measurements of the radioprotective effect of 5-AED, BALB/c mice were exposed to a midlethal dose of 6 Gy TBI. Two hours after TBI, mice were injected IM with 40 mg/kg 5-AED or the carrier as placebo, with or without 0.225 μg TPO or 10 μg Peg-G-CSF IP. Radioprotective effects of 5-AED on immature repopulating cell subsets were assessed by exposing BALB/c donor mice to 3 fractions of 2 Gy TBI, separated by 24 hours, and treatment with 40 mg/Kg/d 5-AED or the carrier IM, or 0.7 μg TPO IP after each fraction or a single injection of 10 μg Peg-G-CSF IP after the first fraction. Twenty four hours after the last fraction, bone marrow of donor mice was examined for immature cell content per femur using the marrow repopulating ability (MRA day 13) assay and the CFU-S day 12 after transplantation in 8 Gy irradiated mice.

[4] = test system: BALB/c mice exposed to 6 Gy TBI; experiment: Radioprotective effect in BALB/c mice after midlethal 6 Gy TBI; format: in vivo
Description: as §1

Molecule	day of maximum neutrophilic granulocyte increase after initiation of the treatment [1]	effect on other hematopoietic lineages, bone marrow cellularity and progenitor cell content [1]	increase from baseline levels in neutrophilic granulocytes in the peripheral blood ([1]; n=5)	bone marrow cellularity [2]	day reticulocytes reached levels >0.05×10^9/mL in peripheral blood [2]	direct local or systemic toxic effects [2]	edema [2]	increase in body weight due to fluid retention [2]	increase of CD34+ cells in BM in comparison to HERF-418 treated monkeys [2]	neutrophil recovery [2]	reduction of the period of leukopenia [2]	shortening of the time to transfusion-independence [2]	transfusions needed to maintain platelets levels of >40×10^6/mL [2]	increase in CFU-S day 12 relative to radiation controls [3]	MRA, expressed as GM-CFU per femur at 13 days after transplantation ([3]; 40 mg/Kg/d IM, range 0-5785)	multilineage recovery (white blood cells, platelets, red blood cells, bone marrow cellularity, colony forming cells) ([4]; 40 mg/kg IM 2 hours after 6 Gy TBI, 14 days post-TBI vs placebo)	effect of increasing the dose on multilineage recovery ([4]; dose up to 200 mg/kg)	effect on CFU-S day 12 ([3]; single injection 10 μg Peg-G-CSF IP after first fraction)
C[C@]12CC[C@H]3[C@@H](CC=C4C[C@@H](O)CC[C@@]43C)[C@@H]1CC[C@@H]2O [5-AED, androst-5-ene-3β,17β-diol]	2 days	did not affect	3.6 fold	8.7±5.3 ×10^6 cells/mL bone marrow aspirate	19.0±1.1 day	not observed	transient edema, which resolved without sequela	up to 13.6%	90 fold	accelerated neutrophil recovery	4 days	4 days	1.3±0.5	5 fold	1002 colonies	accelerated multilineage recovery	did not augment this effect	–
B1	–	–	–	–	–	–	–	–	–	–	–	–	–	7 fold	–	–	–	–
B2	–	–	–	–	–	–	–	–	–	–	–	–	–	–	–	–	–	did not affect
